Laboratory results: US20180235914A1, “PR[…] PHA[…] OF […] A & B AGONISTS AGAINST NEURODEGENERATIVE AND NEURODEVELOPMENTAL DISEASES” (priority 2017, published 2018)

What was measured:
[1] = system: Rats; assay: Animal models in Rats (haloperidol or reserpine catalepsy, reserpine palpebral ptosis, apomorphine and haloperidol stereotypies); format: in vivo; conditions: inferred from catalepsy, ptosis and stereotypy models
[2] = system: PTZ induced behavioral effects in mice; assay: Antagonism of Pentylenetetrazole (PTZ) induced behavioral effects in mice; format: in vivo; conditions: compounds 50 to 200 mg/kg (ip), PTZ 10 to 70 mg/kg (ip)
Procedure: In good agreement with the above pharmacological properties, GS, GP, GL and PG, at doses of 50 to 200 mg/kg, intraperitoneal (ip), in mice antagonized all the behavioral effects (in mice) corresponding to the symptoms, in humans, announcing the development of the neurodegenerative and neurodevelopmental diseases, i.e., anxiety, fear, social disconnection, agressivity, compulsive reactions, hypermotility, stereotypic activity, pain, seizures and lethargy, appearing at various degrees according to the amplitude of the Glutamate/GABA imbalance and to the brain regions (Basal Ganglia, Hippocampus, Cortex) affected by the above imbalance. Indeed, all the above behavioral effects (obtained, in mice, by administration of the GABAergic antagonist Pentylenetetrazole (PTZ) at 10 to 70 mg/kg, (ip): with 10 to 40 mg/kg (ip) giving fear, anxiety, social disconnection, and agressivity, hypermotility and stereotypic activity—the latter being better expressed by previous (reserpine induced) hypersensibilisation of the brain DA receptors—and seizures (obtained at 50 to 70 mg/kg (ip) of PTZ), were antagonized by GS, GP, GL, and PG at 50 to 200 mg/kg (ip).

[3] = Lipophilicity; format: physicochemical; conditions: more specifically for GS, GP and GL
[4] = system: GABA receptors; assay: Affinity for the GABA receptors; format: binding

| Compound | preferential brain region of action [1] | behavioral effects obtained by PTZ (fear, anxiety, social disconnection, agressivity, hypermotility, stereotypic activity, seizures) [2] | lipophilicities [3] | affinities for the GABA receptors [4] |
| --- | --- | --- | --- | --- |
| CCCCCCCCCCCCCCCCCC(=O)NCCCC(=O)O [GS, GABAstearamide] | preferentially acting in substantia nigra | antagonized | high lipophilicities | low affinities |
| CCCCC/C=C\C/C=C\CCCCCCCC(=O)NCCCC(=O)O [GL, GABAlinoleamide] | preferentially acting in the striatum | antagonized | high lipophilicities | low affinities |
| NC(=O)CCC/N=C(\c1ccc(Cl)cc1)c1cc(F)ccc1O [PG, reference compound] | preferentially acting in substantia nigra | antagonized | high lipophilicities | low affinities |
| CCCCCCCCCCCCCCCC(=O)NCCCC(=O)O [GP, GABApalmitamide] | preferentially acting in the striatum | antagonized | high lipophilicities | low affinities |
